Laboratory results taken from the supplement of paper PMC10733146.

Columns and labels:
Assay in all cases: viability relative to DMSO control (fraction); higher = less drug effect (more viable cells)
Settings in all cases: 48 h
[1] = test system: primary AML patient cells (S021)
Summary of the method: (§1)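 Viability is given as CellTiter-Glo luminescence relative to the median of 16 inner DMSO wells. Fresh or cryopreserved primary mononuclear tumour cells from blood, bone marrow (both Ficoll-isolated) or processed lymph node were plated at 4 × 10^4 cells per well in 384-well plates against five pre-plated compound concentrations, one well each. Incubation lasted 48 h at 37 °C and 5% CO2 in RPMI-1640 with penicillin/streptomycin, L-glutamine and human serum.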

[2] = test system: primary AML patient cells (S060)
Summary of the method: as §1

[3] = test system: primary AML patient cells (S009)
Summary of the method: as §1

[4] = test system: primary AML patient cells (S081)
Summary of the method: as §1

[5] = test system: primary AML patient cells (S089)
Summary of the method: as §1

[6] = test system: primary AML patient cells (S071)
Summary of the method: as §1

[7] = test system: primary AML patient cells (S017)
Summary of the method: as §1

[8] = test system: primary MCL patient cells (S068)
Summary of the method: as §1

[9] = test system: primary AML patient cells (S025)
Summary of the method: as §1

[10] = test system: primary AML patient cells (S002)
Summary of the method: as §1

[11] = test system: primary AML patient cells (S072)
Summary of the method: as §1

[12] = test system: primary B-PLL patient cells (S016)
Summary of the method: as §1

[13] = test system: primary BL patient cells (S005)
Summary of the method: as §1

[14] = test system: primary DLBCL patient cells (S082)
Summary of the method: as §1

[15] = test system: primary MCL patient cells (S053)
Summary of the method: as §1

[16] = test system: primary AML patient cells (S055)
Summary of the method: as §1

[17] = test system: primary AML patient cells (S037)
Summary of the method: as §1

[18] = test system: primary AML patient cells (S091)
Summary of the method: as §1

[19] = test system: primary T-PLL patient cells (S008)
Summary of the method: as §1

[20] = test system: primary CLL patient cells (S043)
Summary of the method: as §1

Question: Which viability ([1]; 0.024 µM) does the source give for `CCc1nc(C(N)=O)c(Nc2ccc(N3CCC(N4CCN(C)CC4)CC3)c(OC)c2)nc1NC1CCOCC1` [Gilteritinib] here?
Answer: 1.04

Question: What about the viability ([1]; 0.12 µM) of the same molecule?
Answer: 1.07

Question: And the viability ([1]; 0.6 µM)?
Answer: 0.72

Question: What about the viability ([1]; 3 µM) of the same molecule?
Answer: 0.754

Question: And the viability ([1]; 15 µM)?
Answer: 0.736

Question: And the viability ([2]; 0.024 µM)?
Answer: 1

Question: What about the viability ([2]; 0.12 µM) of the same molecule?
Answer: 1.06

Question: What about the viability ([2]; 0.6 µM) of the same molecule?
Answer: 0.965

Question: And the viability ([2]; 3 µM)?
Answer: 0.663

Question: And the viability ([2]; 15 µM)?
Answer: 0.428

Question: What about the viability ([3]; 0.024 µM) of the same molecule?
Answer: 0.945

Question: And the viability ([3]; 0.12 µM)?
Answer: 0.865

Question: What about the viability ([3]; 0.6 µM) of the same molecule?
Answer: 0.9

Question: What about the viability ([3]; 3 µM) of the same molecule?
Answer: 0.675

Question: What about the viability ([3]; 15 µM) of the same molecule?
Answer: 0.986

Question: What about the viability ([4]; 0.024 µM) of the same molecule?
Answer: 0.968

Question: And the viability ([4]; 0.12 µM)?
Answer: 0.969

Question: What about the viability ([4]; 0.6 µM) of the same molecule?
Answer: 0.947

Question: And the viability ([4]; 3 µM)?
Answer: 0.708

Question: And the viability ([4]; 15 µM)?
Answer: 0.599

Question: What about the viability ([5]; 0.024 µM) of the same molecule?
Answer: 0.956

Question: What about the viability ([5]; 0.12 µM) of the same molecule?
Answer: 0.552

Question: What about the viability ([5]; 0.6 µM) of the same molecule?
Answer: 0.512

Question: And the viability ([5]; 3 µM)?
Answer: 0.379

Question: What about the viability ([5]; 15 µM) of the same molecule?
Answer: 0.311

Question: What about the viability ([6]; 0.024 µM) of the same molecule?
Answer: 0.564

Question: What about the viability ([6]; 0.12 µM) of the same molecule?
Answer: 0.457

Question: And the viability ([6]; 0.6 µM)?
Answer: 0.465

Question: What about the viability ([6]; 3 µM) of the same molecule?
Answer: 0.551

Question: And the viability ([6]; 15 µM)?
Answer: 0.878

Question: And the viability ([7]; 0.024 µM)?
Answer: 0.987

Question: What about the viability ([7]; 0.12 µM) of the same molecule?
Answer: 1.09

Question: What about the viability ([7]; 0.6 µM) of the same molecule?
Answer: 0.606

Question: What about the viability ([7]; 3 µM) of the same molecule?
Answer: 0.5

Question: What about the viability ([7]; 15 µM) of the same molecule?
Answer: 0.47

Question: What about the viability ([8]; 0.024 µM) of the same molecule?
Answer: 1.63

Question: What about the viability ([8]; 0.12 µM) of the same molecule?
Answer: 2

Question: What about the viability ([8]; 0.6 µM) of the same molecule?
Answer: 1.89

Question: What about the viability ([8]; 3 µM) of the same molecule?
Answer: 1.27

Question: And the viability ([8]; 15 µM)?
Answer: 0.689

Question: And the viability ([9]; 0.024 µM)?
Answer: 0.888

Question: What about the viability ([9]; 0.12 µM) of the same molecule?
Answer: 0.862

Question: What about the viability ([9]; 0.6 µM) of the same molecule?
Answer: 0.751

Question: What about the viability ([9]; 3 µM) of the same molecule?
Answer: 0.791

Question: And the viability ([9]; 15 µM)?
Answer: 0.485

Question: And the viability ([10]; 0.024 µM)?
Answer: 1.13

Question: And the viability ([10]; 0.12 µM)?
Answer: 1.01

Question: And the viability ([10]; 0.6 µM)?
Answer: 0.766

Question: And the viability ([10]; 3 µM)?
Answer: 0.592

Question: What about the viability ([10]; 15 µM) of the same molecule?
Answer: 0.456

Question: And the viability ([11]; 0.024 µM)?
Answer: 0.983

Question: And the viability ([11]; 0.12 µM)?
Answer: 0.882

Question: What about the viability ([11]; 0.6 µM) of the same molecule?
Answer: 0.54

Question: What about the viability ([11]; 3 µM) of the same molecule?
Answer: 0.368

Question: And the viability ([11]; 15 µM)?
Answer: 0.285

Question: And the viability ([12]; 0.024 µM)?
Answer: 0.818

Question: And the viability ([12]; 0.12 µM)?
Answer: 0.819

Question: And the viability ([12]; 0.6 µM)?
Answer: 0.875

Question: And the viability ([12]; 3 µM)?
Answer: 0.911

Question: And the viability ([12]; 15 µM)?
Answer: 0.654

Question: And the viability ([13]; 0.024 µM)?
Answer: 0.957

Question: What about the viability ([13]; 0.12 µM) of the same molecule?
Answer: 0.96

Question: What about the viability ([13]; 0.6 µM) of the same molecule?
Answer: 0.739

Question: What about the viability ([13]; 3 µM) of the same molecule?
Answer: 0.667

Question: What about the viability ([13]; 15 µM) of the same molecule?
Answer: 0.536

Question: And the viability ([14]; 0.024 µM)?
Answer: 1.14

Question: What about the viability ([14]; 0.12 µM) of the same molecule?
Answer: 0.761

Question: And the viability ([14]; 0.6 µM)?
Answer: 0.409

Question: And the viability ([14]; 3 µM)?
Answer: 0.459

Question: What about the viability ([14]; 15 µM) of the same molecule?
Answer: 0.476

Question: And the viability ([15]; 0.024 µM)?
Answer: 1.07

Question: What about the viability ([15]; 0.12 µM) of the same molecule?
Answer: 1.02

Question: And the viability ([15]; 0.6 µM)?
Answer: 0.7

Question: And the viability ([15]; 3 µM)?
Answer: 0.707

Question: And the viability ([15]; 15 µM)?
Answer: 0.733

Question: And the viability ([16]; 0.024 µM)?
Answer: 1.04

Question: What about the viability ([16]; 0.12 µM) of the same molecule?
Answer: 1.03

Question: What about the viability ([16]; 0.6 µM) of the same molecule?
Answer: 0.573

Question: What about the viability ([16]; 3 µM) of the same molecule?
Answer: 0.638

Question: And the viability ([16]; 15 µM)?
Answer: 0.821

Question: And the viability ([17]; 0.024 µM)?
Answer: 1.06

Question: And the viability ([17]; 0.12 µM)?
Answer: 1.02

Question: And the viability ([17]; 0.6 µM)?
Answer: 0.875

Question: And the viability ([17]; 3 µM)?
Answer: 0.9

Question: And the viability ([17]; 15 µM)?
Answer: 0.738

Question: And the viability ([18]; 0.024 µM)?
Answer: 0.859

Question: What about the viability ([18]; 0.12 µM) of the same molecule?
Answer: 0.734

Question: What about the viability ([18]; 0.6 µM) of the same molecule?
Answer: 0.238

Question: What about the viability ([18]; 3 µM) of the same molecule?
Answer: 0.122

Question: And the viability ([18]; 15 µM)?
Answer: 0.0937

Question: And the viability ([19]; 0.024 µM)?
Answer: 0.952

Question: And the viability ([19]; 0.12 µM)?
Answer: 0.909

Question: What about the viability ([19]; 0.6 µM) of the same molecule?
Answer: 0.886

Question: What about the viability ([19]; 3 µM) of the same molecule?
Answer: 0.787

Question: And the viability ([19]; 15 µM)?
Answer: 0.935

Question: What about the viability ([20]; 0.024 µM) of the same molecule?
Answer: 1.04

Question: And the viability ([20]; 0.12 µM)?
Answer: 1.01

Question: What about the viability ([20]; 0.6 µM) of the same molecule?
Answer: 0.7

Question: What about the viability ([20]; 3 µM) of the same molecule?
Answer: 0.519

Question: What about the viability ([20]; 15 µM) of the same molecule?
Answer: 0.393
